Results on 24 compounds are retold here after ChEMBL document CHEMBL4396891, “Recent update on anti-dengue drug discovery” (Eur J Med Chem, 2019).

For one test, the target named is Genome polyprotein (dengue virus type 2, UniProt P29990). Kind of test: Inhibition of His-tagged DENV2 NS2B-NS3 serine protease expressed in Escherichia coli BL21 using Boc-Gly-Arg-Arg-7-amino-4-methylcoumarin as substrate measured after 10 mins by fluorometric assay.
The test system of test [1] is dengue virus type 2. Put plainly: Antiviral activity against DENV2. It is filed as functional, organism-based.
The target in test [2] is T1, Nonstructural protein 5 (Dengue virus, UniProt V5TFZ2). Put plainly: Inhibition of His-tagged DENV2 NS5 RNA dependent RNA polymerase. On the set-up: species or system dengue virus type 2.
T1 sequence (V5TFZ2 whole entry): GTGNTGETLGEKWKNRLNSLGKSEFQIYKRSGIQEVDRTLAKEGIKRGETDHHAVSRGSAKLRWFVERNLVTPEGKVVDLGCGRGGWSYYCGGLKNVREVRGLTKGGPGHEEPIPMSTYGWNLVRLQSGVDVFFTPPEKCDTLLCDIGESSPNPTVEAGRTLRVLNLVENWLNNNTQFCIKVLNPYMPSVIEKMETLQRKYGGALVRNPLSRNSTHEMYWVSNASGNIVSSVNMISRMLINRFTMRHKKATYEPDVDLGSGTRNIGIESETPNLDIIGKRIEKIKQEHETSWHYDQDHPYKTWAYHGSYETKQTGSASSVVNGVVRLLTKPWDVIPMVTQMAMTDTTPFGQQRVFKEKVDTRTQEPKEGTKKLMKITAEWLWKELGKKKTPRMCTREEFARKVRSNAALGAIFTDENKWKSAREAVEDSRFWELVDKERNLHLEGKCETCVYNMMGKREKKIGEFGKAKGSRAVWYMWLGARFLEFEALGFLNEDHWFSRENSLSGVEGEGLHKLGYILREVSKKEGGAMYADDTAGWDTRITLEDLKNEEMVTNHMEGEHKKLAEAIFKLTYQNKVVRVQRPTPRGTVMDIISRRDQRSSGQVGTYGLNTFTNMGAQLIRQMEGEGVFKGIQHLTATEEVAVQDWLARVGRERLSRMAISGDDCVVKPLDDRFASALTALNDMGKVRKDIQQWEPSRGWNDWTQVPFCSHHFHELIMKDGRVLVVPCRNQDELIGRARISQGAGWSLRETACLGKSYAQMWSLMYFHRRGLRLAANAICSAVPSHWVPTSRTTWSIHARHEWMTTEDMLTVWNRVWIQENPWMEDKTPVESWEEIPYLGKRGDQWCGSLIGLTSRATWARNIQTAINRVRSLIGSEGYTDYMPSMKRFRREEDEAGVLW
The target in test [3] is T1, Nonstructural protein 5. Put plainly: Inhibition of His-tagged DENV2 NS5 RNA dependent RNA polymerase expressed in baculovirus infected sf9 cells. The arrangement: species or system dengue virus type 2.
Test [4] concerns dengue virus type 2. Kind of test: Antiviral activity against DENV2 infected in BHK-21 cells assessed as viral replication after 24 to 48 hrs by luciferase reporter gene assay. It counts as functional, organism-based.
The test system of the next test is Dengue virus. Kind of test: Antiviral activity against dengue virus. It counts as functional, organism-based.
For test [5], the target named is Genome polyprotein (dengue virus type 2) (UniProt P29990). Kind of test: Inhibition of DENV2 NS2B-NS3 serine protease.
Test [6] has as its system dengue virus type 2. Kind of test: Antiviral activity against DENV2 New Guinea C infected in human Huh7 cells assessed as reduction in viral titer after 3 to 4 days by MTT assay. It counts as functional, organism-based. Particulars: Huh-7.
For test [7], the system named is dengue virus type 1. Kind of test: Antiviral activity against DENV1. It counts as functional, organism-based.
In test [8] the test system is dengue virus type 4. Kind of test: Antiviral activity against DENV4. It is filed as functional, organism-based.
For test [9], the system named is dengue virus type 3. Kind of test: Antiviral activity against DENV3. It counts as functional, organism-based.
Test [10] has as its system dengue virus type 2. Put plainly: Antiviral activity against DENV2 infected in human Huh7 cells by qRT-PCR analysis. It counts as functional, organism-based. To be noted: Huh-7.
Test [11] deals with dengue virus type 2. Kind of test: Antiviral activity against DENV2 infected in BHK cells assessed as reduction in viral yield after 24 ro 48 hrs by luciferase reporter gene assay. It is filed as functional, organism-based.
In test [12] the test system is dengue virus type 2. Kind of test: Antiviral activity against DENV2 infected in BHK-21 cells after 72 hrs by plaque-forming assay. It counts as functional, organism-based. Particulars: BHK-21, 72 h.
The subject of test [13] is dengue virus type 3. Put plainly: Antiviral activity against DENV3 97 infected in human Huh7.5 cells after 72 hrs. To be noted: Dengue virus, 97, Huh7.5, 72 h. It counts as functional, organism-based.
Test [14] has as its system dengue virus type 1. Put plainly: Antiviral activity against DENV1 FGA/89 infected in human Huh7.5 cells after 72 hrs. It is filed as functional, organism-based. To be noted: FGA/89, Huh7.5, 72 h.
In test [15] the test system is dengue virus type 4. Kind of test: Antiviral activity against DENV4 TVP360 infected in human Huh7.5 cells after 72 hrs. It is filed as functional, organism-based. Particulars: TVP360, Huh7.5, 72 h.
Test [16] relates to dengue virus type 2. Put plainly: Antiviral activity against DENV2 ICC-265 infected in human Huh7.5 cells after 72 hrs. It is filed as functional, organism-based. To be noted: ICC-265, Huh7.5, 72 h.
The test system of test [17] is dengue virus type 4. Put plainly: Antiviral activity against DENV4 infected in African green monkey Vero cells assessed as reduction in viral replication at 10 uM after 4 days by qRT-PCR analysis relative to control. It counts as functional. To be noted: 96 h.
In test [18] the test system is dengue virus type 2. Put plainly: Antiviral activity against DENV2 infected in African green monkey Vero cells assessed as reduction in viral replication at 10 uM after 4 days by qRT-PCR analysis relative to control. To be noted: 96 h. It is filed as functional.
For test [19], the system named is dengue virus type 1. Put plainly: Antiviral activity against DENV1 infected in African green monkey Vero cells assessed as reduction in viral replication at 10 uM after 4 days by qRT-PCR analysis relative to control. It counts as functional. Particulars: 96 h.
The subject of test [20] is dengue virus type 3. Put plainly: Antiviral activity against DENV3 infected in African green monkey Vero cells assessed as reduction in viral replication at 10 uM after 4 days by qRT-PCR analysis relative to control. To be noted: 96 h. It counts as functional.
Test [21] relates to dengue virus type 2. Put plainly: Antiviral activity against DENV2 infected in human Huh-7 cells. It is filed as functional, organism-based.
The test system of test [22] is dengue virus type 2. Put plainly: Antiviral activity against DENV2 infected in BHK-21 cells assessed as viral titer by plaque assay. It is filed as functional, organism-based.

In brackets after ≈: the same amount, converted by molar mass.

As to `O=C(O)c1cc2sc(NC(=O)c3ccccc3Sc3ccc(C(F)(F)F)cc3)nc2cc1O`, the IC50 at Genome polyprotein came to 66 µM.

As to `CCOC(=O)c1cnn(-c2ccccc2)c1N(S(=O)(=O)c1ccc([N+](=O)[O-])cc1)S(=O)(=O)c1ccc([N+](=O)[O-])cc1`, the EC50 in the test on dengue virus type 2 [1] worked out at 5.7 µM; at Nonstructural protein 5 [2] it was 4.9 µM; on Nonstructural protein 5 [3] it was 0.013 µM.

Consider `CCN(CC)Cc1cc(Nc2ccnc3cc(Cl)ccc23)ccc1O` [AMODIAQUINE], for which, in the test on dengue virus type 2 [4], the IC50 was 1.08 µM and the IC90 is 2.69 µM.

`CC(C)C[C@@H]1NC(=O)[C@@H]2C[C@@H](O)CN2C1=O`: the concentration giving a half-maximal response (EC50) in the test with Dengue virus lay in the range of 11.2 to 21.2 µM.

In the test with Dengue virus, `O=C1N[C@@H](Cc2ccccc2)C(=O)N2C[C@H](O)C[C@@H]12` displayed an EC50 of 11.2 to 21.2 µM.

In turn, `CCCCC1C(C(=O)CC)C(c2ccccc2)CCN1C(=O)OC(C)(C)C` (stereo not given) yielded a concentration giving a half-maximal response (EC50) in the test on dengue virus type 2 [1] of 3.2 µM. Besides, the INH in [5] worked out at 214 µM.

As to `CCCc1cc(=O)oc2c(C(=O)CC(C)C)c(O)c(CC=C(C)C)c(O)c12`, the EC50 with dengue virus type 2 [1] lay within 2.6 to 10.2 µM.

As for `COc1cc(/C(C#N)=C/c2cc3ccccc3[nH]2)cc(OC)c1OC`, the concentration for a half-maximal effect (EC50) in the test with dengue virus type 2 [6] was found to be 8.12 µM.

`CC[C@H]1C[C@H]2C[N@]3CCc4c([nH]c5ccc(OC)cc45)[C@](C(=O)OC)(C2)[C@H]13` displayed an EC50 with dengue virus type 2 [1] of 2.6 to 10.2 µM.

Consider `Oc1cccc(Nc2nc(NCc3ccc(-c4ccccc4)cc3)nc3nc[nH]c23)c1`, for which the EC50 with dengue virus type 1 [7] is 1.38 to 2.19 µM; in the test on dengue virus type 4 [8], 1.38 to 2.19 µM; with dengue virus type 2 [1] it was 2.8 µM; with dengue virus type 3 [9], 1.38 to 2.19 µM.

Turning to `CN1CCN(CCCN2c3ccccc3Sc3ccc(Cl)cc32)CC1` [PROCHLORPERAZINE], the EC50 in the test with dengue virus type 2 [1] came out at 0.088 µM.

Take `CNCCC(Oc1ccc(C(F)(F)F)cc1)c1ccccc1` (stereo not given) [FLUOXETINE]: half-maximal inhibition in the test on dengue virus type 2 [10] (IC50) was put at 0.38 µM.

As to `Cc1c(O)cccc1C(=O)N[C@@H](CSc1ccccc1)[C@H](O)CN1C[C@H]2CCCC[C@H]2C[C@H]1C(=O)NC(C)(C)C` [NELFINAVIR], half-maximal inhibition in the test on dengue virus type 2 [1] (IC50) required 3.5 µM.

For the compound `CC(=O)O[C@@H]1C(=O)C=C2CCN3Cc4cc5c(cc4[C@H]1[C@@H]23)OCO5`, in the test on Dengue virus, the concentration giving a half-maximal response (EC50) is 0.4 to 1.8 µM.

Regarding `O[C@@H](c1cc(C(F)(F)F)nc2c(C(F)(F)F)cccc12)[C@H]1CCCCN1` [(S,R)-MEFLOQUINE], in the test on dengue virus type 2 [11], the EC50 is 3.22 µM.

With `CCCCCCCCCCCCCCCC[N+](CC)(CO)CO`, in the test on dengue virus type 2 [12], the response was half-maximal at 1.03 µM (EC50).

The compound `O[C@H]1[C@H]2c3cc4c(cc3CN3CCC(=C[C@@H]1O)[C@H]23)OCO4` [LYCORINE] showed a half-maximal effective concentration (EC50) with Dengue virus of 0.4 to 1.8 µM.

As to `CCCCCCCCCCCCCCNCCNC(=O)C[C@]1(O)C[C@@H](O)[C@@H](O)[C@H](O)C1`, the IC50 in the test with dengue virus type 3 [13], with dengue virus type 1 [14], in the test with dengue virus type 4 [15] and in the test on dengue virus type 2 [16] was 6.5 to 10.8 µM throughout.

Regarding `N#C/C(=C\c1ccc(-c2ccc(C(=O)O)cc2)s1)c1nc2cc(Cl)ccc2[nH]1`, the inhibition at 10 µM in the test on dengue virus type 4 [17], in the test with dengue virus type 2 [18], in the test on dengue virus type 1 [19] and in the test with dengue virus type 3 [20] was 50 to 82% throughout.

`O=c1c2cc(O)c(O)cc2oc2cc(O)c([C@@H]3O[C@H](CO)[C@@H](O)[C@H](O)[C@H]3O/C=C/c3ccccc3)c(O)c12` came in with a half-maximal effective concentration (EC50) with dengue virus type 2 [21] of 3.5 µg/mL (≈ 6.67 µM).

Consider `CCN(CC)CCNC(=O)c1c(C)[nH]c(/C=C2\C(=O)Nc3ccc(F)cc32)c1C` [SUNITINIB], for which the concentration for a half-maximal effect (EC50) with dengue virus type 2 [22] was found to be 1.96 µM.

As to `CC[C@@H](c1cc(OC)c(OC)cc1OC)[C@H](C)[C@@H](/C(C)=C/c1cc(OC)c(OC)cc1OC)c1cc(OC)c(OC)cc1OC`, in the test with Dengue virus, a half-maximal response (EC50) required 3.9 µM.

For the compound `CC(C)=CCC/C(C)=C/C=O` [CITRAL], the IC50 with dengue virus type 2 [1] worked out at 31 µM.

Turning to `CCCCCCCCCCCCNCCNC(=O)C[C@@]1(O)C[C@@H](O)[C@@H]2OC(C)(C)O[C@@H]2C1`, the concentration for half-maximal inhibition (IC50) in the test with dengue virus type 3 [13], with dengue virus type 1 [14], with dengue virus type 4 [15] and in the test on dengue virus type 2 [16] was 6.9 to 10.4 µM each time.
